Converted amounts (≈) assume the structure as drawn. Where a SMILES comes first, the peptide text is derived from it. Bridges are numbered along the chain shown (N, C = ends). Roman numbers before positions name the chains, in order. [ ]: non-standard residue; d: D form. Thr(ol) = C[C@@H](O)[C@H](N)CO; Tle = CC(C)(C)[C@H](N)C(=O)O; NMeV = CN[C@H](C(=O)O)C(C)C; Hiv = CC(C)[C@H](O)C(=O)O; dDab = NCC[C@@H](N)C(=O)O; hSer = N[C@@H](CCO)C(=O)O; Dab = NCC[C@H](N)C(=O)O; Dap = NC[C@H](N)C(=O)O
Key:
Type in all cases: cell-based
[1] = system: Acinetobacter baumannii 872842; conditions: 872842
Outline: (§1)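 Two-fold peptide dilutions in polysorbate 80-containing (0.002% final) cation-adjusted Mueller-Hinton II broth were inoculated with about 10^6 CFU/mL. The MIC was taken as the lowest concentration, in μg/mL, preventing visible growth at 18-20 hours and 35° C.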

[2] = system: Acinetobacter baumannii DSM 30008; conditions: DSM 30008
Outline: as §1

[3] = system: Enterobacter cloacae 848840; conditions: 848840
Outline: as §1

[4] = system: Escherichia coli 926415; conditions: 926415
Outline: as §1

[5] = system: Escherichia coli ATCC 25922; conditions: ATCC 25922
Outline: as §1

[6] = system: Klebsiella pneumoniae 968733; conditions: 968733
Outline: as §1

[7] = system: Klebsiella pneumoniae SSI #3010; conditions: SSI #3010
Outline: as §1

[8] = system: Pseudomonas aeruginosa ATCC 27853; conditions: ATCC 27853
Outline: as §1

[9] = system: human red blood cells (hRBC); experiment: Hemolysis; conditions: red cells of human, 1 h, 200
Outline: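 Percent hemolysis relative to 2% Triton X-100 (100%) and PBS/10% water (0%), from blank-corrected OD540 of diluted supernatants. Peptides tested at 200 μg/mL against 20% (v/v) washed human erythrocytes, 1 h, 37° C, shaking at 300 rpm.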

Row | MIC [1] [µg/mL] | MIC [2] [µg/mL] | MIC [3] [µg/mL] | MIC [4] [µg/mL] | MIC [5] [µg/mL] | MIC [6] [µg/mL] | MIC [7] [µg/mL] | MIC [8] [µg/mL] | Structure (SMILES) | Hemolysis at 200 μg/mL [9] [%]
1 | 0.5 (≈ 0.207 µM) | 0.125 (≈ 0.0518 µM) | 0.25 (≈ 0.104 µM) | 1 (≈ 0.414 µM) | 0.0625 (≈ 0.0259 µM) | 1 (≈ 0.414 µM) | 0.125 (≈ 0.0518 µM) | 0.25 (≈ 0.104 µM) | CC(C)C[C@@H]1NC(=O)[C@@H](CC(C)C)NC(=O)[C@H](CCN)NC(=O)[C@@H](NC(=O)[C@H](CN)NC(=O)[C@@H](NC(=O)[C@H](CCN)NC(=O)CC[C@@H]2NC(=O)[C@H](CCN)NC(=O)[C@H](Cc3ccc(O)cc3)NC(=O)[C@@H](NC(=O)[C@@H](O)C(C)C)CSSC[C@@H](C(=O)N[C@@H](CO)C(N)=O)NC(=O)[C@H](C(C)C)NC(=O)[C@H](CCC(=O)O)NC(=O)[C@H](Cc3c[nH]c4ccccc34)NC(=O)[C@H](CCO)NC(=O)[C@@H](CCN)NC2=O)[C@@H](C)O)CCNC(=O)[C@H]([C@@H](C)O)NC(=O)[C@H](CCN)NC(=O)[C@H](CCN)NC1=O [Ex. 157] (I: H-[Hiv]CY[Dab]E[dDab][hSer]WEVCS-NH2 / II: [Dab]T[Dap][Dab][Dab][dL]L[Dab][Dab]T; disulfide I:2-I:11; amide I:5-II:N; lactam II:4-II:C) | <1
2 | 0.25 (≈ 0.1 µM) | 0.0625 (≈ 0.025 µM) | 0.125 (≈ 0.0501 µM) | 0.25 (≈ 0.1 µM) | 0.0625 (≈ 0.025 µM) | 0.5 (≈ 0.2 µM) | 0.125 (≈ 0.0501 µM) | 0.125 (≈ 0.0501 µM) | CC(=O)N[C@H](C(=O)N[C@H]1CSSC[C@@H](C(=O)N[C@@H](CO)C(N)=O)NC(=O)[C@H](C(C)(C)C)NC(=O)[C@H](CCC(=O)O)NC(=O)[C@H](Cc2c[nH]c3ccccc23)NC(=O)[C@H](CCO)NC(=O)[C@@H](CCN)NC(=O)[C@H](CCC(=O)N[C@@H](CCN)C(=O)N[C@H](C(=O)N[C@@H](CN)C(=O)N[C@H]2CCNC(=O)[C@H]([C@@H](C)O)NC(=O)[C@H](CCN)NC(=O)[C@H](CCN)NC(=O)[C@H](CC(C)C)NC(=O)[C@@H](CC(C)C)NC(=O)[C@H](CCN)NC2=O)[C@@H](C)O)NC(=O)[C@H](CCCCN)NC(=O)[C@H](Cc2ccc(O)cc2)NC1=O)C(C)C [Ex. 159] (I: Ac-VCYKE[dDab][hSer]WE[Tle]CS-NH2 / II: [Dab]T[Dap][Dab][Dab][dL]L[Dab][Dab]T; disulfide I:2-I:11; amide I:5-II:N; lactam II:4-II:C) | <1
3 | 0.0625 (≈ 0.026 µM) | 0.0625 (≈ 0.026 µM) | 0.125 (≈ 0.0521 µM) | 0.25 (≈ 0.104 µM) | 0.0625 (≈ 0.026 µM) | 0.0625 (≈ 0.026 µM) | 0.0625 (≈ 0.026 µM) | 0.25 (≈ 0.104 µM) | CC(C)C[C@@H]1NC(=O)[C@@H](CC(C)C)NC(=O)[C@H](CCN)NC(=O)[C@@H](NC(=O)[C@H](CCN)NC(=O)[C@@H](NC(=O)[C@H](CCN)NC(=O)CC[C@@H]2NC(=O)[C@H](CCN)NC(=O)[C@H](Cc3ccc(O)cc3)NC(=O)[C@@H](NC(=O)[C@@H](O)C(C)C)CSSC[C@@H](C(=O)N[C@H](CO)[C@@H](C)O)NC(=O)[C@H](C(C)(C)C)NC(=O)[C@H](CO)NC(=O)[C@H](Cc3c[nH]c4ccccc34)NC(=O)[C@H](CCO)NC(=O)[C@@H](CCN)NC2=O)[C@@H](C)O)CCNC(=O)[C@H]([C@@H](C)O)NC(=O)[C@H](CCN)NC(=O)[C@H](CCN)NC1=O [Ex. 74] (I: H-[Hiv]CY[Dab]E[dDab][hSer]WS[Tle]C[Thr(ol)] / II: [Dab]T[Dab][Dab][Dab][dL]L[Dab][Dab]T; disulfide I:2-I:11; amide I:5-II:N; lactam II:4-II:C) | <1
4 | 0.5 (≈ 0.208 µM) | 0.25 (≈ 0.104 µM) | 8 (≈ 3.33 µM) | 0.5 (≈ 0.208 µM) | 0.125 (≈ 0.0521 µM) | 4 (≈ 1.67 µM) | 0.125 (≈ 0.0521 µM) | 0.125 (≈ 0.0521 µM) | CC(C)C[C@@H]1NC(=O)[C@@H](CC(C)C)NC(=O)[C@H](CCN)NC(=O)[C@@H](NC(=O)[C@H](CCN)NC(=O)[C@@H](NC(=O)[C@H](CCN)NC(=O)CC[C@@H]2NC(=O)[C@H](CCN)NC(=O)[C@H](Cc3ccc(O)cc3)NC(=O)[C@@H](NC(=O)[C@@H](N)C(C)C)CSSC[C@@H](C(=O)N[C@@H](CO)C(=O)O)NC(=O)[C@H](C(C)(C)C)NC(=O)[C@H](CO)NC(=O)[C@H](Cc3c[nH]c4ccccc34)NC(=O)[C@H]([C@@H](C)O)NC(=O)[C@@H](CCN)NC2=O)[C@@H](C)O)CCNC(=O)[C@H]([C@@H](C)O)NC(=O)[C@H](CCN)NC(=O)[C@H](CCN)NC1=O [Ex. 53] (I: H-VCY[Dab]E[dDab]TWS[Tle]CS-OH / II: [Dab]T[Dab][Dab][Dab][dL]L[Dab][Dab]T; disulfide I:2-I:11; amide I:5-II:N; lactam II:4-II:C) | <1

More lines, now with the values behind:

Row | Structure (SMILES) | MIC [1] [µg/mL] | MIC [2] [µg/mL] | MIC [3] [µg/mL] | MIC [4] [µg/mL] | MIC [5] [µg/mL] | MIC [6] [µg/mL] | MIC [7] [µg/mL] | MIC [8] [µg/mL] | Hemolysis at 200 μg/mL [9] [%]
5 | CN[C@H](C(=O)N[C@H](C(=O)N[C@@H](Cc1ccc(O)cc1)C(=O)N[C@H]1CSSC[C@@H](C(=O)N[C@H](C(=O)N[C@@H](C)C(=O)N[C@@H](CO)C(N)=O)C(C)(C)C)NC(=O)[C@H](Cc2c[nH]c3ccccc23)NC(=O)[C@H](CCO)NC(=O)[C@@H](CCN)NC(=O)[C@H](CCC(=O)N[C@@H](CCN)C(=O)N[C@H](C(=O)N[C@@H](CCN)C(=O)N[C@H]2CCNC(=O)[C@H]([C@@H](C)O)NC(=O)[C@H](CCN)NC(=O)[C@H](CCN)NC(=O)[C@H](CC(C)C)NC(=O)[C@@H](CC(C)C)NC(=O)[C@H](CCN)NC2=O)[C@@H](C)O)NC1=O)[C@@H](C)O)C(C)C [Ex. 185] (I: H-[NMeV]TYCE[dDab][hSer]WC[Tle]AS-NH2 / II: [Dab]T[Dab][Dab][Dab][dL]L[Dab][Dab]T; disulfide I:4-I:9; amide I:5-II:N; lactam II:4-II:C) | 0.25 (≈ 0.104 µM) | 0.125 (≈ 0.0521 µM) | 0.25 (≈ 0.104 µM) | 0.25 (≈ 0.104 µM) | 0.125 (≈ 0.0521 µM) | 1 (≈ 0.417 µM) | 0.125 (≈ 0.0521 µM) | 0.125 (≈ 0.0521 µM) | <1
6 | CC(=O)N[C@H](C(=O)N[C@H]1CSSC[C@@H](C(=O)N[C@@H](CO)C(N)=O)NC(=O)[C@H](C(C)(C)C)NC(=O)[C@H](CO)NC(=O)[C@H](Cc2c[nH]c3ccccc23)NC(=O)[C@H]([C@@H](C)O)NC(=O)[C@@H](CCN)NC(=O)[C@H](CCC(=O)N[C@@H](CCN)C(=O)N[C@H](C(=O)N[C@@H](CCN)C(=O)N[C@H]2CCNC(=O)[C@H]([C@@H](C)O)NC(=O)[C@H](CCN)NC(=O)[C@H](CCN)NC(=O)[C@H](CC(C)C)NC(=O)[C@@H](CC(C)C)NC(=O)[C@H](CCN)NC2=O)[C@@H](C)O)NC(=O)[C@H](CO)NC(=O)[C@H](Cc2ccc(O)cc2)NC1=O)C(C)C [Ex. 46] (I: Ac-VCYSE[dDab]TWS[Tle]CS-NH2 / II: [Dab]T[Dab][Dab][Dab][dL]L[Dab][Dab]T; disulfide I:2-I:11; amide I:5-II:N; lactam II:4-II:C) | 0.125 (≈ 0.0515 µM) | 0.0625 (≈ 0.0257 µM) | 0.125 (≈ 0.0515 µM) | 0.125 (≈ 0.0515 µM) | 0.0625 (≈ 0.0257 µM) | 0.5 (≈ 0.206 µM) | 0.125 (≈ 0.0515 µM) | 0.125 (≈ 0.0515 µM) | 2
7 | CC(=O)N[C@@H](CCN)C(=O)N[C@H](C(=O)N[C@H](C(=O)N[C@@H](Cc1ccc(O)cc1)C(=O)N[C@@H](CN)C(=O)N[C@@H](CCC(=O)N[C@@H](CCN)C(=O)N[C@H](C(=O)N[C@@H](CN)C(=O)N[C@H]1CCNC(=O)[C@H]([C@@H](C)O)NC(=O)[C@H](CCN)NC(=O)[C@H](CCN)NC(=O)[C@H](CC(C)C)NC(=O)[C@@H](CC(C)C)NC(=O)[C@H](CCN)NC1=O)[C@@H](C)O)C(=O)N[C@H](CCN)C(=O)N[C@@H](CCN)C(=O)N[C@@H](Cc1c[nH]c2ccccc12)C(=O)N[C@@H](CO)C(=O)N[C@H](C(=O)N[C@@H](C)C(=O)N[C@@H](CO)C(=O)N[C@@H](CCC(=O)O)C(N)=O)C(C)(C)C)[C@@H](C)O)C(C)C [Ex. 248] (I: Ac-[Dab]VTY[Dap]E[dDab][Dab]WS[Tle]ASE-NH2 / II: [Dab]T[Dap][Dab][Dab][dL]L[Dab][Dab]T; amide I:6-II:N; lactam II:4-II:C) | 1 (≈ 0.383 µM) | 0.5 (≈ 0.192 µM) | 4 (≈ 1.53 µM) | 0.25 (≈ 0.0958 µM) | 0.125 (≈ 0.0479 µM) | 4 (≈ 1.53 µM) | 0.125 (≈ 0.0479 µM) | 0.25 (≈ 0.0958 µM) | <1

— patent publication US11629171B2, “Beta-hairpin peptidomimetics” (POLYPHOR AG, priority 2017, dated 2023)
